Laboratory results taken from article PMC6503450, “Proteases Underground: Analysis of the Maize Root Apoplast Identifies Organ Specific Papain-Like Cysteine Protease Activity” (Frontiers in Plant Science, 2019).

Experiments:
CP1C = target: T1, CP1C (Zea mays, UniProt B4FS90); assay: fluorogenic substrate cleavage assay, apoplastic fluid of overexpressing N. benthamiana; type: cell-based; settings: 10 uM Z-LR-AMC, pH 6, 0.5 mM DTT; covalent irreversible active-site inhibitor
T1 sequence (B4FS90 150-389 limits assumed): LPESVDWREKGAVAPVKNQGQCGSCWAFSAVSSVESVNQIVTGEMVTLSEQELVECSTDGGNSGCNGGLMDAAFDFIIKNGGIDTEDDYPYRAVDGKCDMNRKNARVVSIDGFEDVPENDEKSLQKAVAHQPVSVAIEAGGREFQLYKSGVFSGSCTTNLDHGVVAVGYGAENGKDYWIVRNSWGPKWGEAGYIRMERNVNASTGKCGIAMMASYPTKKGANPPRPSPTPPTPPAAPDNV

CP1B = target: T2, CP1B (Zea mays, UniProt K7TP58); assay: as above; type: cell-based
T2 construct: gene LOC100283284
T2 sequence (K7TP58 135-372 limits assumed): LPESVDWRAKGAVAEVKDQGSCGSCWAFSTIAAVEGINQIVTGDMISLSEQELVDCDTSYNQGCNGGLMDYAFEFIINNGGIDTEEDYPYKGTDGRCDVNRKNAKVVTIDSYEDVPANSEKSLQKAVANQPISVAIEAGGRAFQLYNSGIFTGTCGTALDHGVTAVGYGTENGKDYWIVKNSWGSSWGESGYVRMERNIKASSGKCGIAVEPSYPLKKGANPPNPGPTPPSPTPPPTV

- IC50 (CP1C): 3.2 ± 0.2 nM
- IC50 (CP1B): 10 ± 0.9 nM
Structure (SMILES): CC(C)C[C@H](NC(=O)[C@H]1O[C@@H]1C(=O)O)C(=O)NCCCCN=C(N)N [E-64]
